# In the C3SDB collision cross section collection:
# Settings: instrument: DT, single field, calibrated with Agilent tune mix (Agilent)
Compound,collision cross section (N2) ([M+H]+),collision cross section (N2) ([M-H]-),also measured
Nc1ncnc2c1ncn2[C@@H]1O[C@H](COP(=O)(O)OP(=O)(O)OC[C@H]2O[C@@H]([n+]3cccc(C(=O)O)c3)[C@H](O)[C@@H]2O)[C@@H](O)[C@H]1O [Nicotinic acid adenine dinucleotide],,,collision cross section (N2) ([M+2Na-3H]-): 238.49 Å²
O=C(O)CNC(=O)c1cccnc1 [Nicotinuric acid],143.6 Å²,138.08 Å²,
N[C@@H](CCOP(=O)(O)O)C(=O)O [O-Phospho-L-homoserine],,,collision cross section (N2) ([M+Na]+): 141.6 Å²
CCCCCCCC/C=C\CCCCCCCC(=O)SCCNC(=O)CCNC(=O)[C@H](O)C(C)(C)COP(=O)(O)OP(=O)(O)OC[C@H]1O[C@@H](n2cnc3c(N)ncnc32)[C@H](O)[C@@H]1OP(=O)(O)O [Oleoyl-CoA],299.4 Å²,298.79 Å²,
O=c1nc2[nH][nH]cc-2c(=O)[nH]1 [Oxypurinol],126.7 Å²,120.1 Å²,
CC(C)(CO)[C@@H](O)C(=O)NCCC(=O)NCCS [Pantetheine],,,collision cross section (N2) ([M+H-H2O]+): 164.6 Å²; collision cross section (N2) ([M+Na-2H]-): 164.94 Å²
CC(C)(CO)[C@@H](O)C(=O)NCCCO [Pantothenol],144.7 Å²,141.49 Å²,
CCCCCCCCC(=O)O [Pelargonic acid],,143.33 Å²,
CCCCCCCCCCCCCCC(=O)O [Pentadecanoic Acid],,162.72 Å²,
O=C(O)C#Cc1ccccc1 [Phenylpropiolic acid],,,collision cross section (N2) ([M+H-H2O]+): 121.2 Å²
O=C(O)CNC(=O)CCc1ccccc1 [Phenylpropionylglycine],,153.3 Å²,collision cross section (N2) ([M+Na]+): 145.5 Å²
O=C(O)CCCCCC(=O)O [Pimelic acid],,129.29 Å²,
NCc1[nH]cc(CCC(=O)O)c1CC(=O)O [Porphobilinogen],,146.22 Å²,collision cross section (N2) ([M+Na]+): 148.1 Å²
O=C(O)C(=O)CC1(C(=O)O)C=CC(O)C=C1 (configuration not stated) [Prephenate],,,collision cross section (N2) ([M+Na]+): 155 Å²
CCC(=O)NCC(=O)O [Propionylglycine],,126.93 Å²,
O=c1[nH]cc([C@@H]2O[C@H](CO)[C@@H](O)[C@H]2O)c(=O)[nH]1 [Pseudouridine],,145.23 Å²,collision cross section (N2) ([M+Na]+): 159 Å²
Cc1ncc(COP(=O)(O)O)c(CO)c1O [Pyridoxine 5-phosphate],150.5 Å²,,

# The next lines start with results.
collision cross section (N2) ([M+H]+),collision cross section (N2) ([M-H]-),Compound,also measured
182.7 Å²,,Nc1ncnc2c1ncn2[C@@H]1O[C@H](CSCC[C@H](N)C(=O)O)[C@@H](O)[C@H]1O [S-Adenosyl-L-homocysteine],
184.5 Å²,,C[S+](CC[C@H](N)C(=O)[O-])C[C@H]1O[C@@H](n2cnc3c(N)ncnc32)[C@H](O)[C@@H]1O (some centres not stated) [S-Adenosylmethionine],
187.7 Å²,,CC(O)C(=O)SC[C@H](NC(=O)CC[C@H](N)C(=O)O)C(=O)NCC(=O)O (some centres not stated) [S-Lactoylglutathione],collision cross section (N2) ([M+Na-2H]-): 176.59 Å²
,141.9 Å²,O=C(O)CCCCCCCCC(=O)O [Sebacic acid],
210.9 Å²,,CC(C)=CCC/C(C)=C/CC/C(C)=C/CC/C=C(\C)CC/C=C(\C)CCC=C(C)C [Squalene],
,133.2 Å²,O=C(O)CCCCCCC(=O)O [Suberic acid],
,146.81 Å²,O=C(O)CCCCCCC(=O)NCC(=O)O [Suberylglycine],collision cross section (N2) ([M+Na]+): 153.7 Å²
,115.46 Å²,O=C(O)C(O)C(O)C(=O)O (configuration not stated) [Tartaric acid],
,205.82 Å²,C[C@H](CCC(=O)NCCS(=O)(=O)O)[C@H]1CC[C@H]2[C@@H]3[C@H](O)C[C@@H]4C[C@H](O)CC[C@]4(C)[C@H]3C[C@H](O)[C@]12C [Taurocholate],collision cross section (N2) ([M+Na]+): 211.2 Å²
